Laboratory results as given in patent US4327097A, “Novel penicillins” (Toyama Chemical Co., Ltd., priority 1974, dated 1982).
In brackets after ≈: the same amount, converted by molar mass.

Key:
Escherichia coli NIHJ = experiment: MIC, plate method, standard strains; format: cell-based; details: Table 3, standard strain; unit assumed
Outline: (§1)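 Minimum inhibitory concentrations are determined by agar plate dilution using Heart infusion agar (pH 7.4). Each plate receives an inoculum of 10^4 cells.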

Klebsiella pneumoniae [1] = experiment: MIC, plate method, standard strains; format: cell-based; details: Table 3, standard strain; unit assumed
Outline: as §1

Proteus vulgaris 3027 = experiment: MIC, plate method, standard strains; format: cell-based; details: Table 3, standard strain; unit assumed
Outline: as §1

[2] = tested on: Staphylococcus aureus 209p; experiment: MIC, plate method, standard strains; format: cell-based; details: Table 3, standard strain, Heart infusion agar pH 7.4; unit assumed
Outline: as §1

Staphylococcus aureus = experiment: MIC against clinical isolates; format: cell-based; details: Table 5-1, clinical isolate; unit assumed
Escherichia coli = experiment: MIC against clinical isolates; format: cell-based; details: Table 5-2, clinical isolate; unit assumed
Klebsiella pneumoniae [3] = experiment: MIC against clinical isolates; format: cell-based; details: Table 5-4, clinical isolate; unit assumed
Shigella flexneri = experiment: MIC against clinical isolates; format: cell-based; details: Table 5-5, clinical isolate; unit assumed
Description: (§2) The minimum inhibitory concentration (MIC) was determined by the plate method disclosed in "Chemotherapy" (Japan), Vol. 16, (1968), pages 98-99. The culture medium used was a Heart infusion agar (pH 7.4). The number of the cells per plate used in the inoculum was 10^4 (10^6 cells/ml).
(§3) MIC was determined in the same manner as in the preceding paragraph (1).

Shigella sonnei = experiment: MIC against clinical isolates; format: cell-based; details: Table 5-5, clinical isolate; unit assumed
Description: as §2, §3

Salmonella typhi-murium = experiment: MIC against clinical isolates; format: cell-based; details: Table 5-5, clinical isolate; unit assumed
Proteus mirabilis = experiment: MIC against clinical isolates; format: cell-based; details: Table 5-6, clinical isolate; unit assumed
Proteus morganii = experiment: MIC against clinical isolates; format: cell-based; details: Table 5-6, clinical isolate; unit assumed
Proteus vulgaris = experiment: MIC against clinical isolates; format: cell-based; details: Table 5-6, clinical isolate; unit assumed
[4] = tested on: β-lactamase, Pseudomonas aeruginosa GN 238; experiment: Resistant activity against β-lactamase, iodometric assay; format: biochemical; details: β-lactamase from Pseudomonas aeruginosa GN 238; Potassium Penicillin G = 100
Description: (3) Resistant activity against β-lactamase, Pseudomonas aerugionsa GN 238:
The resistant activity of each compound against β-lactamase was measured in the manner described below.
β-Lactamase was prepared from Pseudomonas aeruginosa GN 238. This microorganism was cultured in 100 ml of a medium containing 2 g of yeast extract, 10 g of polypeptone, 2 g of glucose, 7 g of disodium hydrogen phosphate, 2 g of potassium dihydrogen phosphate, 1.2 g of ammonium sulfate and 0.4 g of magnesium sulfate, per liter, in a 500-ml Erlenmeyer flask for 6 hrs. at 37° C. with shaking. The resulting cells were collected by centrifugation (5,000 r.p.m.×10 min.), washed three times with 0.1 M phosphate buffer (pH 7.0). Subsequently, the cells were subjected to sonication (20 KHz, 20 min.) and then centrifuged at 15,000 r.p.m. for 60 min. By using the supernatant of enzyme fluid, the resistance of each compound against β-lactamase was determined by the iodometric assay method. Each numeral shown in Table 7 is a relative activity value calculated by assuming as 100 the activity of the control Potassium Penicillin G.

Pseudomonas aeruginosa = experiment: MIC against clinical isolates; format: cell-based; details: unit assumed
[5] = tested on: Pseudomonas aeruginosa I.F.O.; experiment: MIC, plate method, standard strains; format: cell-based; details: Table 3, standard strain; unit assumed
Outline: as §1

CCCCN1CCN(C(=O)NC(C(=O)NC2C(=O)N3C2SC(C)(C)C3C(=O)O)c2ccccc2)C(=O)C1=O (single isomer, unassigned) [Compound 39]
MIC Esche--richin coil NIHJ (Escherichia coli NIHJ): < 0.1 µg/mL | MIC Klebsiella pneumoniae (Klebsiella pneumoniae [1]): 1.57 µg/mL (≈ 2.88 µM) | MIC Proteus vulgaris 3027 (Proteus vulgaris 3027): 0.4 µg/mL (≈ 0.733 µM) | MIC Staphylococcus aureus 209p [2]: 0.4 µg/mL (≈ 0.733 µM) | MIC Staphylococcus aureus F-2 (Staphylococcus aureus): 1.57 µg/mL (≈ 2.88 µM) | MIC Staphylococcus aureus F-3 (Staphylococcus aureus): 1.57 µg/mL (≈ 2.88 µM) | MIC Staphylococcus aureus F-5 (Staphylococcus aureus): > 200 µg/mL | MIC Staphylococcus aureus MS 8588 (Staphylococcus aureus): 1.57 µg/mL (≈ 2.88 µM) | MIC Staphylococcus aureus MS 8596 (Staphylococcus aureus): 1.57 µg/mL (≈ 2.88 µM) | MIC Escherichia coli GN 3481 (Escherichia coli): 1.57 µg/mL (≈ 2.88 µM) | MIC Escherichia coli GN 3611 (Escherichia coli): > 200 µg/mL | MIC Escherichia coli K-1 (Escherichia coli): 1.57 µg/mL (≈ 2.88 µM) | MIC Escherichia coli K-2 (Escherichia coli): 1.57 µg/mL (≈ 2.88 µM) | MIC Escherichia coli K-3 (Escherichia coli): > 200 µg/mL | MIC Klebsiella pneumoniae GN 917 (Klebsiella pneumoniae [3]): 1.57 µg/mL (≈ 2.88 µM) | MIC Shigella flexneri JS 11215 (Shigella flexneri): 25 µg/mL (≈ 45.8 µM) | MIC Shigella flexneri JS 11839 (Shigella flexneri): 0.79 µg/mL (≈ 1.45 µM) | MIC Shigella sonnei JS 11232 (Shigella sonnei): 25 µg/mL (≈ 45.8 µM) | MIC Shigella sonnei JS 11755 (Shigella sonnei): 1.57 µg/mL (≈ 2.88 µM) | MIC Salmonella typhi-murium SL 2136 (Salmonella typhi-murium): 100 µg/mL (≈ 183 µM) | MIC Proteus mirabilis (Proteus mirabilis): < 0.4 µg/mL | MIC Proteus morganii (Proteus morganii): < 0.4 µg/mL | MIC Proteus vulgaris (Proteus vulgaris): < 0.4 µg/mL | Relative activity (%), resistant activity against β-lactamase [4]: 15%

CCCCCN1CCN(C(=O)NC(C(=O)NC2C(=O)N3C2SC(C)(C)C3C(=O)O)c2ccccc2)C(=O)C1=O (single isomer, unassigned) [Compound 45]
MIC Esche--richin coil NIHJ (Escherichia coli NIHJ): < 0.1 µg/mL | MIC Proteus vulgaris 3027 (Proteus vulgaris 3027): 0.4 µg/mL (≈ 0.715 µM) | MIC Staphylococcus aureus F-2 (Staphylococcus aureus): 1.57 µg/mL (≈ 2.81 µM) | MIC Staphylococcus aureus F-3 (Staphylococcus aureus): 1.57 µg/mL (≈ 2.81 µM) | MIC Staphylococcus aureus F-5 (Staphylococcus aureus): > 200 µg/mL | MIC Escherichia coli GN 3452 (Escherichia coli): 1.57 µg/mL (≈ 2.81 µM) | MIC Escherichia coli GN 3481 (Escherichia coli): 1.57 µg/mL (≈ 2.81 µM) | MIC Escherichia coli GN 3611 (Escherichia coli): > 200 µg/mL | MIC Escherichia coli K-2 (Escherichia coli): 1.57 µg/mL (≈ 2.81 µM) | MIC Escherichia coli K-3 (Escherichia coli): 200 µg/mL (≈ 357 µM) | MIC Pseudomonas aeruginosa GN 1035 (Pseudomonas aeruginosa; Table 5-3, clinical isolate): 50 µg/mL (≈ 89.3 µM) | MIC Pseudomonas neruginosa S-3 (Pseudomonas aeruginosa; Table 5-4, clinical isolate): 50 µg/mL (≈ 89.3 µM) | MIC Klebsiella pneumoniae GN 917 (Klebsiella pneumoniae [3]): 1.57 µg/mL (≈ 2.81 µM) | MIC Shigella flexneri JS 11215 (Shigella flexneri): 25 µg/mL (≈ 44.7 µM) | MIC Shigella flexneri JS 11839 (Shigella flexneri): 1.57 µg/mL (≈ 2.81 µM) | MIC Shigella sonnei JS 11232 (Shigella sonnei): 25 µg/mL (≈ 44.7 µM) | MIC Shigella sonnei JS 11755 (Shigella sonnei): 1.57 µg/mL (≈ 2.81 µM) | MIC Salmonella typhi-murium SL 2136 (Salmonella typhi-murium): 200 µg/mL (≈ 357 µM) | MIC Proteus mirabilis (Proteus mirabilis): < 0.4 µg/mL | MIC Proteus vulgaris (Proteus vulgaris): < 0.4 µg/mL | Relative activity (%), resistant activity against β-lactamase [4]: 16%

CCCCCCN1CCN(C(=O)NC(C(=O)NC2C(=O)N3C2SC(C)(C)C3C(=O)O)c2ccccc2)C(=O)C1=O (single isomer, unassigned) [Compound 46]
MIC Esche--richin coil NIHJ (Escherichia coli NIHJ): < 0.1 µg/mL | MIC Klebsiella pneumoniae (Klebsiella pneumoniae [1]): 0.4 µg/mL (≈ 0.697 µM) | MIC Proteus vulgaris 3027 (Proteus vulgaris 3027): 0.4 µg/mL (≈ 0.697 µM) | MIC Pseudomonas aeruginosa I.F.C [5]: 6.25 µg/mL (≈ 10.9 µM) | MIC Staphylococcus aureus 209p [2]: 0.2 µg/mL (≈ 0.349 µM) | MIC Staphylococcus aureus F-1 (Staphylococcus aureus): 6.25 µg/mL (≈ 10.9 µM) | MIC Staphylococcus aureus F-2 (Staphylococcus aureus): 1.57 µg/mL (≈ 2.74 µM) | MIC Staphylococcus aureus F-4 (Staphylococcus aureus): 6.25 µg/mL (≈ 10.9 µM) | MIC Staphylococcus aureus F-5 (Staphylococcus aureus): > 200 µg/mL | MIC Staphylococcus aureus MS 8588 (Staphylococcus aureus): 1.57 µg/mL (≈ 2.74 µM) | MIC Staphylococcus aureus MS 8619 (Staphylococcus aureus): < 0.4 µg/mL | MIC Staphylococcus aureus MS 8684 (Staphylococcus aureus): 1.57 µg/mL (≈ 2.74 µM) | MIC Staphylococcus aureus MS 8713 (Staphylococcus aureus): 6.25 µg/mL (≈ 10.9 µM) | MIC Escherichia coli GN 3435 (Escherichia coli): < 0.4 µg/mL | MIC Escherichia coli GN 3465 (Escherichia coli): 6.25 µg/mL (≈ 10.9 µM) | MIC Escherichia coli GN 3611 (Escherichia coli): > 200 µg/mL | MIC Escherichia coli K-3 (Escherichia coli): 50 µg/mL (≈ 87.2 µM) | MIC Escherichia coli K-4 (Escherichia coli): < 0.4 µg/mL | MIC Pseudomonas aeruginosa GN (Pseudomonas aeruginosa; Table 5-3, clinical isolate, strain number not given): 12.5 µg/mL (≈ 21.8 µM) | MIC Pseudomonas aeruginosa GN 82 (Pseudomonas aeruginosa; Table 5-3, clinical isolate): 6.25 µg/mL (≈ 10.9 µM) | MIC Pseudomonas aeruginosa GN 163 (Pseudomonas aeruginosa; Table 5-3, clinical isolate): 6.25 µg/mL (≈ 10.9 µM) | MIC Pseudomonas aeruginosa GN 221 (Pseudomonas aeruginosa; Table 5-3, clinical isolate): 12.5 µg/mL (≈ 21.8 µM) | MIC Pseudomonas aeruginosa GN 1035 (Pseudomonas aeruginosa; Table 5-3, clinical isolate): 50 µg/mL (≈ 87.2 µM) | MIC Pseudomonas aeruginosa GN 1091 (Pseudomonas aeruginosa; Table 5-3, clinical isolate): 12.5 µg/mL (≈ 21.8 µM) | MIC Pseudomonas aeruginosa GN 2565 (Pseudomonas aeruginosa; Table 5-3, clinical isolate): 12.5 µg/mL (≈ 21.8 µM) | MIC Pseudomonas aeruginosa GN 2987 (Pseudomonas aeruginosa; Table 5-3, clinical isolate): 6.25 µg/mL (≈ 10.9 µM) | MIC Pseudomonas neruginosa S-1 (Pseudomonas aeruginosa; Table 5-4, clinical isolate): 50 µg/mL (≈ 87.2 µM) | MIC Pseudomonas neruginosa S-2 (Pseudomonas aeruginosa; Table 5-4, clinical isolate): 50 µg/mL (≈ 87.2 µM) | MIC Pseudomonas neruginosa S-3 (Pseudomonas aeruginosa; Table 5-4, clinical isolate): 50 µg/mL (≈ 87.2 µM) | MIC Pseudomonas neruginosa S-4 (Pseudomonas aeruginosa; Table 5-4, clinical isolate): 50 µg/mL (≈ 87.2 µM) | MIC Klebsiella pneumoniae GN 3850 (Klebsiella pneumoniae [3]): 1.57 µg/mL (≈ 2.74 µM) | MIC Klebsiella pneumoniae GN 4081 (Klebsiella pneumoniae [3]): 12.5 µg/mL (≈ 21.8 µM) | MIC Klebsiella pneumoniae GN 4117 (Klebsiella pneumoniae [3]): 12.5 µg/mL (≈ 21.8 µM) | MIC Shigella flexneri JS 11215 (Shigella flexneri): 6.25 µg/mL (≈ 10.9 µM) | MIC Shigella flexneri JS 11839 (Shigella flexneri): 0.79 µg/mL (≈ 1.38 µM) | MIC Shigella sonnei JS 11232 (Shigella sonnei): 12.5 µg/mL (≈ 21.8 µM) | MIC Shigella sonnei JS 11755 (Shigella sonnei): 0.79 µg/mL (≈ 1.38 µM) | MIC Salmonella typhi-murium SL 858 (Salmonella typhi-murium): < 0.4 µg/mL | MIC Salmonella typhi-murium SL 2136 (Salmonella typhi-murium): 50 µg/mL (≈ 87.2 µM) | MIC Proteus mirabilis (Proteus mirabilis): < 0.4 µg/mL | MIC Proteus morganii (Proteus morganii): < 0.4 µg/mL | MIC Proteus vulgaris (Proteus vulgaris): < 0.4 µg/mL | Relative activity (%), resistant activity against β-lactamase [4]: 12%
